Read-outs that look alike come from different tables or passages of the source.

For experiment [1], the target named is hPAD4 (Homo sapiens, UniProt Q9UM07). The experiment in a line: hPAD4 RFMS (RapidFire mass spectrometry) PAD4 inhibition assay.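 On hPAD4 RFMS pIC50: grade E means pIC50 at most 4 and F means pIC50 4.0 to 5.0.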 It is filed as biochemical. Particulars: hPAD4 enzyme, RFMS readout. As for the experimental part: (§1) Compounds of the present invention were assayed as inhibitors of PAD4 using the assay protocol described below.
hPAD4, sequence (Q9UM07 whole entry): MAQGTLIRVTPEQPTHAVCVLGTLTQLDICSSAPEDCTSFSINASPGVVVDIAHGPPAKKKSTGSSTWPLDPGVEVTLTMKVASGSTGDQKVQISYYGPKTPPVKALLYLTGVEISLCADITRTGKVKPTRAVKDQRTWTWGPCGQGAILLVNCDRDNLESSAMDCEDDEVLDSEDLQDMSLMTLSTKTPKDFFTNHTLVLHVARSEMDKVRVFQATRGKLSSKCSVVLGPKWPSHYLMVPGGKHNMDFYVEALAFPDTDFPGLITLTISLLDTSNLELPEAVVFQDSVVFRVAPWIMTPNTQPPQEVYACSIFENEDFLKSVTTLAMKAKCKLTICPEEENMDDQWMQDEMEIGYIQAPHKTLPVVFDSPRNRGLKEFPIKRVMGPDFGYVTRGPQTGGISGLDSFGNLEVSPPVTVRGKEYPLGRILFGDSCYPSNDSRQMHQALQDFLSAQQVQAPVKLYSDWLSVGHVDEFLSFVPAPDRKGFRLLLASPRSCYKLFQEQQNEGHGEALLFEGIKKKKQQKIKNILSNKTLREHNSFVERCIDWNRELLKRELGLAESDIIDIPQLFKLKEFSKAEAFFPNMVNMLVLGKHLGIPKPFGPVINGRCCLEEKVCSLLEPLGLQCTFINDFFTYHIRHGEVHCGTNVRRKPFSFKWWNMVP
(§2) Compound stock solutions were stored at RT. […] Final assay conditions were as follows:
(§3) Total incubation time: 65 mins at 37° C.
(§4) Stop solution: 40 μl 5% TCA in ACN
(§5) The compound numbers correspond to the compound numbers in Table 1. […] The term pIC50=−log(IC50). […] “NA” stands for “not assayed.”

Experiment [2] deals with mPAD4 (Mus musculus, UniProt Q9Z183). The experiment in a line: mPAD4 RFMS PAD4 inhibition assay.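 On mPAD4 RFMS pIC50: grade E means pIC50 at most 4 and F means pIC50 4.0 to 5.0.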 In kind it is biochemical. As to conditions: mPAD4, RFMS readout. The protocol: as §1, §2, §3, §4, §5
mPAD4, sequence (Q9Z183 whole entry): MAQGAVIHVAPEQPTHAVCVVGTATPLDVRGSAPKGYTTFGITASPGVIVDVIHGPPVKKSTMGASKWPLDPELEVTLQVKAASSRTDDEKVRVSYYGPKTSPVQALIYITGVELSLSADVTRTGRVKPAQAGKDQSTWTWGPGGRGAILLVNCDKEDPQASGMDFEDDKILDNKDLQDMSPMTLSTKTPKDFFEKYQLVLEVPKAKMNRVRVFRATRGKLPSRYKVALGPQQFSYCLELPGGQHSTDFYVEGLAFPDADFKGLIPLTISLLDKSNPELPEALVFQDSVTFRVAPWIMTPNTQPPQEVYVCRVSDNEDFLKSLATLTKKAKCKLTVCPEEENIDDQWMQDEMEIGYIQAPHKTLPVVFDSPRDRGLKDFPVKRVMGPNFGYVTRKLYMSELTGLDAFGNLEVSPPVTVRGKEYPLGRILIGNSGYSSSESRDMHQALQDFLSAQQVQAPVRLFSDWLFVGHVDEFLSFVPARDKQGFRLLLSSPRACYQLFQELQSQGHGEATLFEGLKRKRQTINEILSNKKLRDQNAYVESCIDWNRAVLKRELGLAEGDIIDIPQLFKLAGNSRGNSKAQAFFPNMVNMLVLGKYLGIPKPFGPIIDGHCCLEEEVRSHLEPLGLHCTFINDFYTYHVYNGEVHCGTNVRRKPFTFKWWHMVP
[3] abbreviates: pIC50=−log(IC50), read-out: hPAD4 RFMS pIC50 (converted).
The mark [4] stands for this setting: pIC50=−log(IC50), read-out: mPAD4 RFMS pIC50 (converted).

Take `COc1ccc2cc(-c3nc4cc(C(=O)N5C[C@H]6CC[C@@H]5[C@@H]6N)cc(F)c4n3C)n(CC3CC3)c2n1` [Compound I-230]: the IC50 in experiment [1] (setting [3]), in experiment [1] (read-out: hPAD4 RFMS IC50), in experiment [2] (setting [4]) and in experiment [2] (read-out: mPAD4 RFMS IC50) was less than 1 µM throughout.

For the compound `COc1cc(C(=O)N2C[C@H]3CC[C@@H]2[C@@H]3N)cc2nc(-c3cc4cccnc4n3CC3CC3)n(C[C@H]3CCOC3)c12` [Compound I-231], the IC50 in experiment [1] (setting [3]), in experiment [1] (read-out: hPAD4 RFMS IC50), in experiment [2] (setting [4]) and in experiment [2] (read-out: mPAD4 RFMS IC50) was less than 1 µM throughout.

Turning to `COc1cc(C(=O)N2C[C@H]3CC[C@@H]2[C@@H]3N)cc2nc(-c3cc4cccnc4n3CC3CC3)n(C[C@@H]3CCOC3)c12` [Compound I-232], the IC50 in experiment [1] (setting [3]), in experiment [1] (read-out: hPAD4 RFMS IC50), in experiment [2] (setting [4]) and in experiment [2] (read-out: mPAD4 RFMS IC50) was less than 1 µM in each case.

For `COc1cc(C(=O)N2C[C@H]3CC[C@@H]2[C@@H]3N)cc2nc(-c3cc4cccnc4n3CC3CC3)n(CC(F)F)c12` [Compound I-233], the IC50 in experiment [1] (setting [3]), in experiment [1] (read-out: hPAD4 RFMS IC50), in experiment [2] (setting [4]) and in experiment [2] (read-out: mPAD4 RFMS IC50) was less than 1 µM each time.

As for `COc1cc(C(=O)N2C[C@H]3CC[C@@H]2[C@@H]3N)cc2nc(-c3cc4cccnc4n3CC3CC3)n(CC(F)F)c12` [Compound I-234], the “hPAD4 RFMS pIC50” value in experiment [1] (pIC50=−log(IC50)) is “H (pIC50 of ≥6)”. Besides, the IC50 in experiment [1] (read-out: hPAD4 RFMS IC50) is less than 1 µM; in experiment [2] (setting [4]), 1 to 10 µM; in experiment [2] (read-out: mPAD4 RFMS IC50), 1 to 5 µM.

Take `COc1cc(C(=O)N2C[C@H]3CC[C@@H]2[C@@H]3N)cc2nc(-c3cc4cccnc4n3CC3CC3)n(CCSC)c12` [Compound I-235]: the IC50 in experiment [1] (setting [3]), in experiment [1] (read-out: hPAD4 RFMS IC50), in experiment [2] (setting [4]) and in experiment [2] (read-out: mPAD4 RFMS IC50) was less than 1 µM each time.

In the case of `COc1cc(C(=O)N2C[C@H]3CC[C@@H]2[C@@H]3N)cc2nc(-c3cc4cccnc4n3CC3CC3)n(C[C@H]3C[C@@H](OC)C3)c12` [Compound I-236], the IC50 in experiment [1] (setting [3]), in experiment [1] (read-out: hPAD4 RFMS IC50), in experiment [2] (setting [4]) and in experiment [2] (read-out: mPAD4 RFMS IC50) was less than 1 µM in each case.

As to `CN[C@@H]1[C@@H]2CC[C@H]1N(C(=O)c1cc(OC)c3c(c1)nc(-c1cc4cccnc4n1CC1CC1)n3C)C2` [Compound I-237, (1R,4R,7R)-2-{2-[1-(Cyclopropylmethyl)-1H-pyrrolo[2,3-b]pyridin-2-yl]-7-methoxy-1-methyl-1H-1,3-benzodiazole-5-carbonyl}-N-methyl-2-azabicyclo[2.2.1]heptan-7-amine], the IC50 in experiment [1] (setting [3]) is 10 to 100 µM; in experiment [1] (read-out: hPAD4 RFMS IC50), more than 10 µM; in experiment [2] (setting [4]), 10 to 100 µM; in experiment [2] (read-out: mPAD4 RFMS IC50), more than 10 µM.

As for `[2H]C([2H])([2H])OC1(C)CC(Cn2c(-c3cc4cccnc4n3CC3CC3)nc3cc(C(=O)N4C[C@H]5CC[C@@H]4[C@@H]5N)cc(OC)c32)C1` (stereo partly drawn) [Compound I-238, (1R,4R,7R)-2-{2-[1-(cyclopropylmethyl)-1H-pyrrolo[2,3-b]pyridin-2-yl]-7-methoxy-1-{[3-(^2H3)methoxy-3-methylcyclobutyl]methyl}-1H-1,3-benzodiazole-5-carbonyl}-2-azabicyclo[2.2.1]heptan-7-amine], the IC50 in experiment [1] (setting [3]), in experiment [1] (read-out: hPAD4 RFMS IC50), in experiment [2] (setting [4]) and in experiment [2] (read-out: mPAD4 RFMS IC50) was less than 1 µM in each case.

The record behind these values is patent US9963448B2, “Bicyclic inhibitors of PAD4” (Padlock Therapeutics, Inc., priority 2015, dated 2018).
